Source: the OligoGym collection
Oligonucleotides are given in HELM: sugar(base)linkage, 5' to 3'; d 2'-deoxyribose, r ribose, m 2'-O-methylribose, p phosphate. ss, as = sense and antisense strand

Each substance was assayed against TMEM63B (assay: reporter assay of Huesken 2005). Conditions: siRNA.
Further: test concentration or dose not given here.

Substance	normalised inhibition (eCFP-eYFP dual reporter) [%]
RNA1{r(C)p.r(C)p.r(A)p.r(C)p.r(U)p.r(C)p.r(C)p.r(A)p.r(G)p.r(C)p.r(C)p.r(A)p.r(U)p.r(C)p.r(A)p.r(U)p.r(C)p.r(A)p.r(U)p.d(T)p.d(T)}|RNA2{r(A)p.r(U)p.r(G)p.r(A)p.r(U)p.r(G)p.r(A)p.r(U)p.r(G)p.r(G)p.r(C)p.r(U)p.r(G)p.r(G)p.r(A)p.r(G)p.r(U)p.r(G)p.r(G)p.d(T)p.d(G)}$$$RNA1{StrandType:ss}|RNA2{StrandType:as}$	77.4
RNA1{r(C)p.r(C)p.r(A)p.r(U)p.r(C)p.r(C)p.r(U)p.r(C)p.r(U)p.r(G)p.r(C)p.r(C)p.r(U)p.r(C)p.r(U)p.r(U)p.r(C)p.r(U)p.r(G)p.d(T)p.d(T)}|RNA2{r(C)p.r(A)p.r(G)p.r(A)p.r(A)p.r(G)p.r(A)p.r(G)p.r(G)p.r(C)p.r(A)p.r(G)p.r(A)p.r(G)p.r(G)p.r(A)p.r(U)p.r(G)p.r(G)p.d(G)p.d(C)}$$$RNA1{StrandType:ss}|RNA2{StrandType:as}$	53.2
RNA1{r(C)p.r(C)p.r(C)p.r(A)p.r(U)p.r(C)p.r(A)p.r(U)p.r(C)p.r(A)p.r(C)p.r(C)p.r(C)p.r(A)p.r(G)p.r(U)p.r(U)p.r(C)p.r(U)p.d(T)p.d(T)}|RNA2{r(A)p.r(G)p.r(A)p.r(A)p.r(C)p.r(U)p.r(G)p.r(G)p.r(G)p.r(U)p.r(G)p.r(A)p.r(U)p.r(G)p.r(A)p.r(U)p.r(G)p.r(G)p.r(G)p.d(G)p.d(T)}$$$RNA1{StrandType:ss}|RNA2{StrandType:as}$	68.7
RNA1{r(C)p.r(C)p.r(C)p.r(G)p.r(U)p.r(G)p.r(U)p.r(U)p.r(A)p.r(C)p.r(A)p.r(A)p.r(C)p.r(G)p.r(U)p.r(G)p.r(G)p.r(C)p.r(U)p.d(T)p.d(T)}|RNA2{r(A)p.r(G)p.r(C)p.r(C)p.r(A)p.r(C)p.r(G)p.r(U)p.r(U)p.r(G)p.r(U)p.r(A)p.r(A)p.r(C)p.r(A)p.r(C)p.r(G)p.r(G)p.r(G)p.d(C)p.d(G)}$$$RNA1{StrandType:ss}|RNA2{StrandType:as}$	75.8
RNA1{r(C)p.r(C)p.r(G)p.r(C)p.r(C)p.r(G)p.r(A)p.r(G)p.r(A)p.r(G)p.r(G)p.r(C)p.r(G)p.r(C)p.r(A)p.r(A)p.r(C)p.r(G)p.r(U)p.d(T)p.d(T)}|RNA2{r(A)p.r(C)p.r(G)p.r(U)p.r(U)p.r(G)p.r(C)p.r(G)p.r(C)p.r(C)p.r(U)p.r(C)p.r(U)p.r(C)p.r(G)p.r(G)p.r(C)p.r(G)p.r(G)p.d(C)p.d(C)}$$$RNA1{StrandType:ss}|RNA2{StrandType:as}$	21.8
RNA1{r(C)p.r(C)p.r(G)p.r(U)p.r(G)p.r(C)p.r(A)p.r(C)p.r(U)p.r(A)p.r(C)p.r(C)p.r(U)p.r(G)p.r(U)p.r(C)p.r(C)p.r(U)p.r(U)p.d(T)p.d(T)}|RNA2{r(A)p.r(A)p.r(G)p.r(G)p.r(A)p.r(C)p.r(A)p.r(G)p.r(G)p.r(U)p.r(A)p.r(G)p.r(U)p.r(G)p.r(C)p.r(A)p.r(C)p.r(G)p.r(G)p.d(C)p.d(A)}$$$RNA1{StrandType:ss}|RNA2{StrandType:as}$	86.8
RNA1{r(C)p.r(C)p.r(U)p.r(A)p.r(C)p.r(A)p.r(G)p.r(C)p.r(U)p.r(U)p.r(U)p.r(G)p.r(G)p.r(G)p.r(A)p.r(G)p.r(A)p.r(A)p.r(C)p.d(T)p.d(T)}|RNA2{r(G)p.r(U)p.r(U)p.r(C)p.r(U)p.r(C)p.r(C)p.r(C)p.r(A)p.r(A)p.r(A)p.r(G)p.r(C)p.r(U)p.r(G)p.r(U)p.r(A)p.r(G)p.r(G)p.d(C)p.d(A)}$$$RNA1{StrandType:ss}|RNA2{StrandType:as}$	81.9
RNA1{r(C)p.r(C)p.r(U)p.r(C)p.r(U)p.r(U)p.r(C)p.r(A)p.r(U)p.r(C)p.r(A)p.r(A)p.r(U)p.r(G)p.r(G)p.r(A)p.r(A)p.r(U)p.r(C)p.d(T)p.d(T)}|RNA2{r(G)p.r(A)p.r(U)p.r(U)p.r(C)p.r(C)p.r(A)p.r(U)p.r(U)p.r(G)p.r(A)p.r(U)p.r(G)p.r(A)p.r(A)p.r(G)p.r(A)p.r(G)p.r(G)p.d(G)p.d(T)}$$$RNA1{StrandType:ss}|RNA2{StrandType:as}$	73.9
RNA1{r(C)p.r(C)p.r(U)p.r(G)p.r(A)p.r(A)p.r(G)p.r(G)p.r(A)p.r(C)p.r(U)p.r(U)p.r(C)p.r(A)p.r(A)p.r(C)p.r(G)p.r(U)p.r(G)p.d(T)p.d(T)}|RNA2{r(C)p.r(A)p.r(C)p.r(G)p.r(U)p.r(U)p.r(G)p.r(A)p.r(A)p.r(G)p.r(U)p.r(C)p.r(C)p.r(U)p.r(U)p.r(C)p.r(A)p.r(G)p.r(G)p.d(A)p.d(T)}$$$RNA1{StrandType:ss}|RNA2{StrandType:as}$	84.5
RNA1{r(C)p.r(C)p.r(U)p.r(G)p.r(C)p.r(U)p.r(C)p.r(A)p.r(U)p.r(G)p.r(U)p.r(A)p.r(C)p.r(A)p.r(U)p.r(G)p.r(A)p.r(U)p.r(C)p.d(T)p.d(T)}|RNA2{r(G)p.r(A)p.r(U)p.r(C)p.r(A)p.r(U)p.r(G)p.r(U)p.r(A)p.r(C)p.r(A)p.r(U)p.r(G)p.r(A)p.r(G)p.r(C)p.r(A)p.r(G)p.r(G)p.d(C)p.d(C)}$$$RNA1{StrandType:ss}|RNA2{StrandType:as}$	73.1
RNA1{r(C)p.r(C)p.r(U)p.r(G)p.r(G)p.r(U)p.r(C)p.r(A)p.r(U)p.r(C)p.r(A)p.r(A)p.r(U)p.r(G)p.r(U)p.r(C)p.r(G)p.r(U)p.r(C)p.d(T)p.d(T)}|RNA2{r(G)p.r(A)p.r(C)p.r(G)p.r(A)p.r(C)p.r(A)p.r(U)p.r(U)p.r(G)p.r(A)p.r(U)p.r(G)p.r(A)p.r(C)p.r(C)p.r(A)p.r(G)p.r(G)p.d(C)p.d(A)}$$$RNA1{StrandType:ss}|RNA2{StrandType:as}$	60.4
RNA1{r(C)p.r(C)p.r(U)p.r(U)p.r(C)p.r(C)p.r(A)p.r(C)p.r(A)p.r(A)p.r(U)p.r(G)p.r(A)p.r(G)p.r(A)p.r(C)p.r(U)p.r(A)p.r(U)p.d(T)p.d(T)}|RNA2{r(A)p.r(U)p.r(A)p.r(G)p.r(U)p.r(C)p.r(U)p.r(C)p.r(A)p.r(U)p.r(U)p.r(G)p.r(U)p.r(G)p.r(G)p.r(A)p.r(A)p.r(G)p.r(G)p.d(T)p.d(G)}$$$RNA1{StrandType:ss}|RNA2{StrandType:as}$	72.3
RNA1{r(C)p.r(C)p.r(U)p.r(U)p.r(U)p.r(G)p.r(U)p.r(C)p.r(A)p.r(C)p.r(C)p.r(U)p.r(U)p.r(C)p.r(C)p.r(A)p.r(C)p.r(A)p.r(A)p.d(T)p.d(T)}|RNA2{r(U)p.r(U)p.r(G)p.r(U)p.r(G)p.r(G)p.r(A)p.r(A)p.r(G)p.r(G)p.r(U)p.r(G)p.r(A)p.r(C)p.r(A)p.r(A)p.r(A)p.r(G)p.r(G)p.d(C)p.d(C)}$$$RNA1{StrandType:ss}|RNA2{StrandType:as}$	74.2
RNA1{r(C)p.r(G)p.r(A)p.r(G)p.r(G)p.r(C)p.r(U)p.r(G)p.r(U)p.r(G)p.r(A)p.r(G)p.r(C)p.r(A)p.r(G)p.r(G)p.r(U)p.r(G)p.r(G)p.d(T)p.d(T)}|RNA2{r(C)p.r(C)p.r(A)p.r(C)p.r(C)p.r(U)p.r(G)p.r(C)p.r(U)p.r(C)p.r(A)p.r(C)p.r(A)p.r(G)p.r(C)p.r(C)p.r(U)p.r(C)p.r(G)p.d(C)p.d(A)}$$$RNA1{StrandType:ss}|RNA2{StrandType:as}$	42.2
RNA1{r(C)p.r(G)p.r(A)p.r(U)p.r(G)p.r(C)p.r(A)p.r(G)p.r(A)p.r(G)p.r(A)p.r(G)p.r(G)p.r(A)p.r(A)p.r(G)p.r(A)p.r(A)p.r(G)p.d(T)p.d(T)}|RNA2{r(C)p.r(U)p.r(U)p.r(C)p.r(U)p.r(U)p.r(C)p.r(C)p.r(U)p.r(C)p.r(U)p.r(C)p.r(U)p.r(G)p.r(C)p.r(A)p.r(U)p.r(C)p.r(G)p.d(A)p.d(G)}$$$RNA1{StrandType:ss}|RNA2{StrandType:as}$	56.4
RNA1{r(C)p.r(G)p.r(C)p.r(A)p.r(U)p.r(C)p.r(C)p.r(C)p.r(A)p.r(G)p.r(G)p.r(C)p.r(C)p.r(U)p.r(G)p.r(C)p.r(U)p.r(C)p.r(A)p.d(T)p.d(T)}|RNA2{r(U)p.r(G)p.r(A)p.r(G)p.r(C)p.r(A)p.r(G)p.r(G)p.r(C)p.r(C)p.r(U)p.r(G)p.r(G)p.r(G)p.r(A)p.r(U)p.r(G)p.r(C)p.r(G)p.d(C)p.d(A)}$$$RNA1{StrandType:ss}|RNA2{StrandType:as}$	74.9
RNA1{r(C)p.r(G)p.r(C)p.r(C)p.r(C)p.r(U)p.r(C)p.r(A)p.r(C)p.r(G)p.r(G)p.r(A)p.r(C)p.r(A)p.r(C)p.r(A)p.r(G)p.r(A)p.r(C)p.d(T)p.d(T)}|RNA2{r(G)p.r(U)p.r(C)p.r(U)p.r(G)p.r(U)p.r(G)p.r(U)p.r(C)p.r(C)p.r(G)p.r(U)p.r(G)p.r(A)p.r(G)p.r(G)p.r(G)p.r(C)p.r(G)p.d(T)p.d(C)}$$$RNA1{StrandType:ss}|RNA2{StrandType:as}$	59.1
RNA1{r(C)p.r(G)p.r(C)p.r(U)p.r(A)p.r(C)p.r(A)p.r(A)p.r(G)p.r(G)p.r(A)p.r(G)p.r(G)p.r(A)p.r(U)p.r(G)p.r(A)p.r(U)p.r(C)p.d(T)p.d(T)}|RNA2{r(G)p.r(A)p.r(U)p.r(C)p.r(A)p.r(U)p.r(C)p.r(C)p.r(U)p.r(C)p.r(C)p.r(U)p.r(U)p.r(G)p.r(U)p.r(A)p.r(G)p.r(C)p.r(G)p.d(C)p.d(A)}$$$RNA1{StrandType:ss}|RNA2{StrandType:as}$	79.3
RNA1{r(C)p.r(G)p.r(C)p.r(U)p.r(C)p.r(A)p.r(G)p.r(G)p.r(U)p.r(G)p.r(C)p.r(U)p.r(G)p.r(C)p.r(A)p.r(G)p.r(G)p.r(A)p.r(C)p.d(T)p.d(T)}|RNA2{r(G)p.r(U)p.r(C)p.r(C)p.r(U)p.r(G)p.r(C)p.r(A)p.r(G)p.r(C)p.r(A)p.r(C)p.r(C)p.r(U)p.r(G)p.r(A)p.r(G)p.r(C)p.r(G)p.d(A)p.d(T)}$$$RNA1{StrandType:ss}|RNA2{StrandType:as}$	46.2
RNA1{r(C)p.r(G)p.r(G)p.r(C)p.r(C)p.r(G)p.r(C)p.r(C)p.r(G)p.r(A)p.r(G)p.r(A)p.r(G)p.r(G)p.r(C)p.r(G)p.r(C)p.r(A)p.r(A)p.d(T)p.d(T)}|RNA2{r(U)p.r(U)p.r(G)p.r(C)p.r(G)p.r(C)p.r(C)p.r(U)p.r(C)p.r(U)p.r(C)p.r(G)p.r(G)p.r(C)p.r(G)p.r(G)p.r(C)p.r(C)p.r(G)p.d(A)p.d(G)}$$$RNA1{StrandType:ss}|RNA2{StrandType:as}$	72.9
